Source: patent US20240069010A1, “TISSUE ORGANOID BIOPRINTING AND HIGH-THROUGHPUT SCREENING METHODOLOGY” (priority 2020, published 2024)

Legend:
BT-474 organoids = experiment: HSLCI mass tracking of bioprinted organoids in drug screening; type: cell-based; details: for Organoid Behavior (%) Gained Mass: mass increase >10%; for Organoid Behavior (%) Lost Mass: mass loss >10%; for Organoid Behavior (%) Stable: mass change <10%
Excerpt: (§1) Cells were bioprinted using a CELLINK BioX with a Temperature-Controlled Printhead. Gcode files were written to print the desired single-layer geometry. We wrote standardized blocks of Gcode encode the print path for the repeated geometries. MATLAB (MathWorks, Inc.) was used to integrate these standardized blocks into full Gcode files with the defined coordinates for each well. We used 8-well plates when printing the larger constructs as the depth of the well in a standard 24-well plate prohibited the use of 0.5″ length needles. Large rings were necessary to deposit a sufficient number of cells for RNA-Seq and IHC. Four rings with a diameter of 14.5 mm were printed for RNA sequencing (approximately 200,000 cells total), while four sets of concentric 14.5 mm, 12.5 mm, and 10.5 mm diameter rings were used for IHC analysis (approximately 500,000 cells total). We printed mini-squares with side length 3.9 mm for drug screening and HSLCI imaging. The mini-squares were inscribed within the circular well with sides parallel to the sides of the well plate. The open center of the constructs facilitates automatic manipulation with fluid handling equipment while the sides of the square are positioned to maximize the number of organoids imaged by HSLCI. The bioprinting process utilized the same material deposited for manually seeded organoids. A single cell suspension, aggregates or clusters in a 3:4 mixture of MammoCult™ and Matrigel® was prepared on ice. After vortexing briefly to homogenize, the mixture was transferred into a 3 mL syringe by removing the plunger and capping the opposite end. Once the plunger was replaced, the syringe was inverted, and bubbles were forced out of the tip. The material was then transferred to a room temperature 3 mL bioprinter cartridge (CELLINK) by connecting the syringe and cartridge with a double-sided female Luer lock adapter (CELLINK). Any air bubbles in the syringe were removed and the loaded cartridge was incubated in a rotating incubator (Enviro-Genie, Scientific Industries) for 30 minutes at the print temperature.
(§2) During the incubation period, the printer was sterilized with the built-in UV irradiation function and the printhead was set to the print temperature. […] The well masks were autoclaved prior to use. The masks were inserted into the well plate and pressed in contact with the glass surface. Rubber bands were used to hold the masks in place and ensure conformal contact was maintained throughout the plasma treatment. The well plates were treated with oxygen plasma in a PE-25 (Plasma Etch) for 30-90 seconds, 15 minutes prior to bioprinting. After plasma treatment, the well plate was placed in the bioprinter and Automatic Bed Levelling (ABL) was performed.
(§3) Once the incubation period ended, we attached a 0.5″ 25-gauge needle and loaded the cartridge into the pre-cooled printhead. We primed the needle by extruding a small volume of material at 15 kPa prior to calibrating the printer. Just before printing, we cleared the needle of the gelled material by extruding a small volume using 40 kPa prior to starting the print. To create constructs of the appropriate thicknesses, prints in 8-well plates were extruded at 15 kPa while prints in 96-well plates were extruded at 12-15 kPa. […] After printing, the constructs were incubated at 37° C. for at least 30 minutes to solidify the matrix and 100 μL of MammoCult™ medium was then added.
(§4) The HSLCI platform was installed inside a standard cell culture incubator. For all growth kinetics studies and drug screening, organoids were imaged in 96-well glass-bottom plates (Cellvis P96-1.5H-N) using a 40× objective (Nikon, NA 0.75). Organoids were seeded as single-cell suspensions in a 3:4 mixture of MammoCult™ and Matrigel® as described above and were grown at 37° C. and 5% CO2 in MammoCult™ medium supplemented with 1% antibiotic-antimycotic (Gibco 15240-062).

MCF-7 organoids = experiment: as above; type: cell-based; details: for Mean mass of MCF-7 organoids, Mean mass ± SD: 48 hours of treatment; for Organoid Behavior (%) Stable / Organoid Behavior (%) Gained Mass / Organoid Behavior (%) Lost Mass: MCF-7 organoids; for Organoid Behavior (%) Stable: mass change <10%; for Organoid Behavior (%) Gained Mass: mass increase >10%; for Organoid Behavior (%) Lost Mass: mass loss >10%
Excerpt: as §1, §2, §3, §4

For `CN[C@@H]1C[C@H]2O[C@@](C)([C@@H]1OC)n1c3ccccc3c3c4c(c5c6ccccc6n2c5c31)C(=O)NC4` [Staurosporine, staurosporine], which “Mean mass of BT-474 organoids, Mean mass ± SD” value (BT-474 organoids; 1 μM, 6 hours of treatment) is on record?
The value was 1.38 ± 0.49 ng.

And the “Mean mass of BT-474 organoids, Mean mass ± SD” value (BT-474 organoids; 1 μM, 48 hours of treatment)?
The value was 0.70 ± 0.26 ng.

What about the “Mean mass of BT-474 organoids, Mean mass ± SD” value (BT-474 organoids; 1 μM, 48 hours of treatment, listed as staurosporine) of the same compound?
The value was 0.70 ± 0.26 ng.

And the “Mean mass of BT-474 organoids, Mean mass ± SD” value (BT-474 organoids; 10 μM, 6 hours of treatment)?
Its value is 1.46 ± 0.72 ng.

And the “Mean mass of BT-474 organoids, Mean mass ± SD” value (BT-474 organoids; 10 μM, 48 hours of treatment)?
Its value is 0.83 ± 0.72 ng.

And the “Mean mass of BT-474 organoids, Mean mass ± SD” value (BT-474 organoids; 10 μM, 48 hours of treatment, listed as staurosporine)?
The value was 0.83 ± 0.72 ng.

What about the “Organoid Behavior (%) Gained Mass” value (BT-474 organoids; BT-474 organoids, 0.1 μM, 12 h) of the same compound?
Its value is 27.6%.

What about the “Organoid Behavior (%) Lost Mass” value (BT-474 organoids; BT-474 organoids, 0.1 μM, 12 h) of the same compound?
Its value is 1.7%.

And the “Organoid Behavior (%) Stable” value (BT-474 organoids; BT-474 organoids, 0.1 μM, 24 h)?
Its value is 50.0%.

And the “Organoid Behavior (%) Gained Mass” value (BT-474 organoids; BT-474 organoids, 0.1 μM, 24 h)?
Its value is 45.8%.

And the “Organoid Behavior (%) Lost Mass” value (BT-474 organoids; BT-474 organoids, 0.1 μM, 24 h)?
Its value is 4.2%.

What about the “Organoid Behavior (%) Stable” value (BT-474 organoids; BT-474 organoids, 0.1 μM, 48 h) of the same compound?
The value was 23.4%.

What about the “Organoid Behavior (%) Gained Mass” value (BT-474 organoids; BT-474 organoids, 0.1 μM, 48 h) of the same compound?
The value was 70.1%.

What about the “Organoid Behavior (%) Lost Mass” value (BT-474 organoids; BT-474 organoids, 0.1 μM, 48 h) of the same compound?
Its value is 6.5%.

What about the “Organoid Behavior (%) Stable” value (BT-474 organoids; BT-474 organoids, 1 μM, 12 h) of the same compound?
Its value is 47.6%.

What about the “Organoid Behavior (%) Gained Mass” value (BT-474 organoids; BT-474 organoids, 1 μM, 12 h) of the same compound?
The value was 19.0%.

What about the “Organoid Behavior (%) Gained Mass” value (BT-474 organoids; BT-474 organoids, 1 μM, 12 h, listed as staurosporine) of the same compound?
The value was 19%.

And the “Organoid Behavior (%) Stable” value (BT-474 organoids; BT-474 organoids, 1 μM, 24 h)?
The value was 29.5%.

And the “Organoid Behavior (%) Gained Mass” value (BT-474 organoids; BT-474 organoids, 1 μM, 24 h)?
The value was 13.6%.

And the “Organoid Behavior (%) Lost Mass” value (BT-474 organoids; BT-474 organoids, 1 μM, 24 h)?
Its value is 56.8%.

And the “Organoid Behavior (%) Stable” value (BT-474 organoids; BT-474 organoids, 1 μM, 48 h)?
Its value is 12.0%.

What about the “Organoid Behavior (%) Gained Mass” value (BT-474 organoids; BT-474 organoids, 1 μM, 48 h) of the same compound?
The value was 4.0%.

What about the “Organoid Behavior (%) Lost Mass” value (BT-474 organoids; BT-474 organoids, 1 μM, 48 h) of the same compound?
Its value is 84.0%.

And the “reduction in the number of organoids that increased in size” value (BT-474 organoids; BT-474 organoids, 1 μM, after 12 hours, compared to the control)?
Its value is 60%.

What about the “Organoid Behavior (%) Stable” value (BT-474 organoids; BT-474 organoids, 10 μM, 12 h) of the same compound?
Its value is 64.3%.

And the “Organoid Behavior (%) Gained Mass” value (BT-474 organoids; BT-474 organoids, 10 μM, 12 h)?
Its value is 7.1%.

And the “Organoid Behavior (%) Lost Mass” value (BT-474 organoids; BT-474 organoids, 10 μM, 12 h)?
Its value is 28.6%.

What about the “Organoid Behavior (%) Stable” value (BT-474 organoids; BT-474 organoids, 10 μM, 24 h) of the same compound?
Its value is 23.9%.

What about the “Organoid Behavior (%) Gained Mass” value (BT-474 organoids; BT-474 organoids, 10 μM, 24 h) of the same compound?
Its value is 19.6%.

What about the “Organoid Behavior (%) Lost Mass” value (BT-474 organoids; BT-474 organoids, 10 μM, 24 h) of the same compound?
The value was 56.5%.

What about the “Organoid Behavior (%) Gained Mass” value (BT-474 organoids; BT-474 organoids, 10 μM, 48 h) of the same compound?
The value was 14.8%.

And the “Organoid Behavior (%) Lost Mass” value (BT-474 organoids; BT-474 organoids, 10 μM, 48 h)?
The value was 66.7%.

And the “Mean mass of MCF-7 organoids, Mean mass ± SD” value (MCF-7 organoids; 1 μM)?
Its value is 1.33 ± 1.07 ng.

What about the “Mean mass of MCF-7 organoids, Mean mass ± SD” value (MCF-7 organoids; 1 μM, listed as staurosporine) of the same compound?
Its value is 1.33 ± 1.08 ng.

What about the “Mean mass of MCF-7 organoids, Mean mass ± SD” value (MCF-7 organoids; 10 μM) of the same compound?
The value was 1.26 ± 0.78 ng.

And the “Mean mass of MCF-7 organoids, Mean mass ± SD” value (MCF-7 organoids; 10 μM, listed as staurosporine)?
Its value is 1.26 ± 0.80 ng.

And the “Organoid Behavior (%) Stable” value (MCF-7 organoids; 0.1 μM, 12 h)?
The value was 76.5%.

What about the “Organoid Behavior (%) Gained Mass” value (MCF-7 organoids; 0.1 μM, 12 h) of the same compound?
The value was 8.8%.

And the “Organoid Behavior (%) Lost Mass” value (MCF-7 organoids; 0.1 μM, 12 h)?
Its value is 14.7%.

And the “Organoid Behavior (%) Stable” value (MCF-7 organoids; 0.1 μM, 24 h)?
Its value is 60.5%.

What about the “Organoid Behavior (%) Lost Mass” value (MCF-7 organoids; 0.1 μM, 24 h) of the same compound?
The value was 23.3%.

And the “Organoid Behavior (%) Stable” value (MCF-7 organoids; 0.1 μM, 48 h)?
Its value is 38.2%.

And the “Organoid Behavior (%) Gained Mass” value (MCF-7 organoids; 0.1 μM, 48 h)?
The value was 29.4%.

And the “Organoid Behavior (%) Lost Mass” value (MCF-7 organoids; 0.1 μM, 48 h)?
The value was 32.4%.

And the “Organoid Behavior (%) Stable” value (MCF-7 organoids; 1 μM, 12 h)?
Its value is 82.1%.

What about the “Organoid Behavior (%) Gained Mass” value (MCF-7 organoids; 1 μM, 12 h) of the same compound?
Its value is 7.1%.

And the “Organoid Behavior (%) Lost Mass” value (MCF-7 organoids; 1 μM, 12 h)?
The value was 10.7%.

What about the “Organoid Behavior (%) Stable” value (MCF-7 organoids; 1 μM, 24 h) of the same compound?
The value was 71.4%.

What about the “Organoid Behavior (%) Gained Mass” value (MCF-7 organoids; 1 μM, 24 h) of the same compound?
Its value is 3.6%.

What about the “Organoid Behavior (%) Lost Mass” value (MCF-7 organoids; 1 μM, 24 h) of the same compound?
The value was 25.0%.

What about the “Organoid Behavior (%) Stable” value (MCF-7 organoids; 1 μM, 48 h) of the same compound?
The value was 73.3%.

And the “Organoid Behavior (%) Lost Mass” value (MCF-7 organoids; 1 μM, 48 h)?
The value was 26.7%.

What about the “Organoid Behavior (%) Stable” value (MCF-7 organoids; 10 μM, 12 h) of the same compound?
The value was 79.6%.

What about the “Organoid Behavior (%) Gained Mass” value (MCF-7 organoids; 10 μM, 12 h) of the same compound?
Its value is 2.0%.

And the “Organoid Behavior (%) Lost Mass” value (MCF-7 organoids; 10 μM, 12 h)?
The value was 18.4%.

What about the “Organoid Behavior (%) Stable” value (MCF-7 organoids; 10 μM, 24 h) of the same compound?
Its value is 51.4%.

And the “Organoid Behavior (%) Gained Mass” value (MCF-7 organoids; 10 μM, 24 h)?
Its value is 0.0%.

And the “Organoid Behavior (%) Lost Mass” value (MCF-7 organoids; 10 μM, 24 h)?
The value was 48.6%.

And the “Organoid Behavior (%) Stable” value (MCF-7 organoids; 10 μM, 48 h)?
Its value is 32.1%.

What about the “Organoid Behavior (%) Gained Mass” value (MCF-7 organoids; 10 μM, 48 h) of the same compound?
The value was 3.6%.

And the “Organoid Behavior (%) Lost Mass” value (MCF-7 organoids; 10 μM, 48 h)?
The value was 64.3%.
